According to patent US10160949B2, “Agent for improving sperm-motility” (Tokyo Metropolitan Geriatric Hospital and Institute of …, priority 2013, dated 2018):
Where two headings read alike, the source gives them in different places.

Assays:
[1] = system: sperm that had a passage of five days or more after collection; conditions: for samples in which the percentage of sperm with forward motility was increased: of 17 samples with forward motility less than 15%; for percentage of sperm with forward motility compared with control (untreated) group: duration of gas treatment 5 min
Protocol: In principle, the percentage (%) of sperm with motility (A+B+C)/(A+B+C+D) was calculated as an average as obtained by repeating the above examination two or three times. […] Here, as used herein, the percentage of sperm with forward motility is represented by the formula: (A+B)/(A+B+C+D).
The percentage of sperm with motility (the percentage of sperm with forward motility and the percentage of sperm with non-forward motility) and the percentage of immotile sperm were compared between the groups. […] To check whether or not the gas passed through the acryl box, another passage was inserted into a water-containing beaker. Whether the gas passed therethrough was confirmed by observing the occurrence of bubbling via the passage in the beaker. With regard to the N2 gas, the procedure was likewise performed and all were carried out at room temperature. A hundred μl of the sperm suspension was added dropwise to a 1008 dish. Before the mixed gas was made to pass therethrough, the dish was placed in the acryl box. […] After 40 min had passed, each sperm suspension was well mixed by pipetting. Next, several μl of the sperm suspension was added dropwise to a Makler container. Then, the sperm concentration, the number of sperm with forward motility, the number of sperm with non-forward motility, and the number of immotile sperm were determined visually. Also, with respect to the untreated group in which the sperm suspension was used as it was, the sperm concentration, the number of sperm with forward motility, the number of sperm with non-forward motility, and the number of immotile sperm were likewise determined visually. […] Samples of the untreated group in which the percentage of sperm with forward motility exceeded 15% were excluded. Regarding the rest samples, one sample was grouped into three treatment groups and each treatment group was measured twice. Specifically, with respect to each sample, the ratio of the number of sperm with forward motility to the total number of sperm in the visual field was defined as the percentage of sperm with forward motility. The ratio of the number of sperm with some motility (a moving flagellum), but without forward motility to the total number of sperm was defined as the percentage of sperm with non-forward motility.

[2] = system: sperm on day 5 after collection; assay: Migration distance of forwardly moving sperm by video recording and CASA (ImageJ); format: cell-based, human; conditions: FIG. 5; for average migration distance compared among untreated, H2 and N2 groups: 10 patients, 10 s of forward movement, P=0.2193
Protocol: Then, the recorded video was analyzed by the CASA system (NIH) (computer assisted sperm analysis using ImageJ, description of necessary components and use of free software) to determine the migration distance of forwardly moving sperm.

[3] = Concentration of hydrogen in liquid (hydrogen electrode); format: physicochemical; conditions: 10 min after 30 min of the H2 treatment
Protocol: Next, the culture solution was left to stand. […] The culture solution as so prepared was used to wash sperm, and a change in their motility was examined. […] After re-centrifugation, the concentration was decreased to 100 μM.

mitochondria of sperm = conditions: FIG. 7(d); compared with untreated and N2 treatment groups; P<0.001
Excerpt: The stained sperm were visualized using a laser scanning confocal microscope (Leica, Wetzlar, Germany). In addition, the viability of sperm was checked by PI fluorescence staining.
Meanwhile, the differential interference images were designated as DIC (Differential interference contrast). […] FIG. 7(d) is a graph showing the results of semi-quantifying, using the ImageJ, the fluorescent intensity of the sperm stained with TMRM.

[4] = mixed gas containing 50% hydrogen molecules used for bubbling of a liquid; cited from earlier work
freeze-thawed sperm = system: freeze-thawed sperm
Protocol: Semen that was transferred to the clinic within four hours after ejaculation was suspended in a solution in which equal amounts of the Cleavage Medium and TEST-yolk buffer (TYB; Irvine Scientific, CA, USA) had been mixed. Then, the mixture was dispensed into cryotubes. The resulting cryotubes were once exposed to nitrogen vapor for 5 min, and were then cryopreserved in liquid nitrogen. At the time of thawing, each cryotube was heated in warm water at 37° C. After that, the sperm suspension in the cryotube was dispensed into four vials.
After the dispensed sperm suspension was washed for 5 min with each sperm washing medium, the motility of sperm was measured.

[5] = FIG. 3(a), sperm 5 days or more after collection, mixed gas treatment 40 min, 30 samples
[6] = FIG. 4, 17 samples from patients with forward motility less than 15%

Compound: N#N [N2, nitrogen, reference compound]
- percentage of sperm with forward motility (average) [1, 5]: 7.7%
- percentage of sperm with forward motility (average) [1, 6]: 3.6%
- samples in which the percentage of sperm with forward motility was increased ([1]; FIG. 4): four
- average migration distance compared among untreated, H2 and N2 groups [2]: no significant difference

Compound: [HH] [H2, hydrogen]
- hydrogen in 10 μl of the sperm suspension [3]: eliminated
- percentage of sperm with forward motility (average) [1, 5]: 16.8%
- samples with percentage of sperm with forward motility higher than in the control ([1]; FIG. 3(b), duration of H2 treatment 30 or 60 min): about 70 % of the samples
- percentage of sperm with forward motility compared with control (untreated) group ([1]; FIG. 3(b)): tended to decrease
- percentage of sperm with forward motility compared with control (untreated) group ([1]; FIG. 3(b), listed as gaseous agent for improving sperm-motility): did not result in the recovery of the motility of sperm
- percentage of sperm with forward motility (average) [1, 6]: 11%
- samples in which the percentage of sperm with forward motility was increased ([1]; FIG. 4): 16 samples
- time course of forward motility after treatment ([1]; FIG. 6, 30 to 150 min after 30 min H2 treatment, 10 patients): a big change in the forward motility of sperm was not observed
- motility 24 hours after treatment ([1]; FIG. 6, H2 treatment 30 min, retreatment 30 min at 24 hours): had motility even after 24 hours
- samples of sperm with non-forward motility among samples in which forward motility was not recovered ([1]; of 12 samples (25%)): 3 samples
- samples in which forward movement was recovered only in the H2 treatment group ([1]; of 17 samples (35%), no recovery in untreated and N2 groups): Six
- samples in which the H2 treatment group exhibited a longer migration distance (increased forward motility) than the N2 treatment group ([1]; of 18 samples in which forward motility was recovered (94%), P<0.01): 17 samples
- average migration distance compared among untreated, H2 and N2 groups [2]: no significant difference
- migration distance per second of the sperm ([2]; compared with untreated and N2 groups): the longest one
- intensity of TMRM fluorescence (mitochondrial membrane potential) (mitochondria of sperm): strong intensity of TMRM fluorescence
- hydrogen solubility [4]: about 0.4 mM
- percentage of sperm with forward motility (average) (freeze-thawed sperm; FIG. 8(a), 6 samples, patients with forward motility 50% or higher, washing medium containing 50% of H2, 5 min): 61.3%
- percentage of sperm with forward motility (average) (freeze-thawed sperm; FIG. 8(a), 6 samples, patients with forward motility 50% or higher, washing medium containing 75% of H2, 5 min): 71.0%
- percentage of sperm with forward motility (average) (freeze-thawed sperm; FIG. 8(a), 6 samples, patients with forward motility 50% or higher, washing medium containing 100% of H2, 5 min): 70.0%
- percentage of sperm with forward motility (average) (freeze-thawed sperm; FIG. 8(b), 15 samples, patients with forward motility less than 50%, washing medium containing 50% of H2, 5 min): 41.2%
- percentage of sperm with forward motility (average) (freeze-thawed sperm; FIG. 8(b), 15 samples, patients with forward motility less than 50%, washing medium containing 75% of H2, 5 min): 40.8%
- percentage of sperm with forward motility (average) (freeze-thawed sperm; FIG. 8(b), 15 samples, patients with forward motility less than 50%, washing medium containing 100% of H2, 5 min): 31.4%
